Test results reported in patent US12643871B2, “Aryl formamide compound containing chiral sulfur oxide or salt thereof, preparation method, herbicidal composition and use thereof” (Qingdao Kingagroot Chemical Compound Co., Ltd., priority 2019, dated 2026).

Key:
Assay in all cases: Weeding effect in post-emergence stage
Type in all cases: in vivo
Settings in all cases: 250 g/ha; 2 leaf stage; 15 days after application; fresh weight control rate
Abutilon theophrasti = tested on: Abutilon theophrasti
Procedure, shortened: (§1)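 Activity graded 0 (<5%) to 5 (>85%) from fresh-weight control rate, averaged over three repeats, 15 days after a spray-tower application. Plants at 2-leaf stage (2 weeks post-sowing) received 15–500 g/ha of compound formulated in acetone, Tween 80 and methyl oleate synergist (1.5 L/ha).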

Setaria viridis = tested on: Setaria viridis
Procedure, shortened: as §1

Echinochloa crusgali = tested on: Echinochloa crusgali
Procedure, shortened: as §1

Digitaria sanguinalis = tested on: Digitaria sanguinalis
Procedure, shortened: as §1

Amaranthus retroflexus = tested on: Amaranthus retroflexus
Procedure, shortened: as §1

| SMILES | weeding effect in post-emergence stage, activity level (growth control rate), Abutilon theophrasti (Abutilon theophrasti) | weeding effect in post-emergence stage, activity level (growth control rate), Setaria viridis (Setaria viridis) | weeding effect in post-emergence stage, activity level (growth control rate), Echinochloa crusgali (Echinochloa crusgali) | weeding effect in post-emergence stage, activity level (growth control rate), Digitaria sanguinalis (Digitaria sanguinalis) | weeding effect in post-emergence stage, activity level (growth control rate), Amaranthus retroflexus (Amaranthus retroflexus) |
| --- | --- | --- | --- | --- | --- |
| C#CC[S@@+]([O-])c1c(C(F)(F)F)ccc(C(=O)Nc2nnc(C)o2)c1SC [Compound 553] | 5 (Level 5: growth control rate is above 85%) | 5 (Level 5: growth control rate is above 85%) | 5 (Level 5: growth control rate is above 85%) | 5 (Level 5: growth control rate is above 85%) | 5 (Level 5: growth control rate is above 85%) |
| CSc1c(C(=O)Nc2nnc(C)o2)ccc(C(F)(F)F)c1[S@+]([O-])CCF [Compound 555] | 5 (Level 5: growth control rate is above 85%) | 5 (Level 5: growth control rate is above 85%) | 5 (Level 5: growth control rate is above 85%) | 5 (Level 5: growth control rate is above 85%) | 5 (Level 5: growth control rate is above 85%) |
| CSc1c(C(=O)Nc2nnc(C)o2)ccc(C(F)(F)F)c1[S@+]([O-])CC(F)(F)F [Compound 556] | 5 (Level 5: growth control rate is above 85%) | 5 (Level 5: growth control rate is above 85%) | 5 (Level 5: growth control rate is above 85%) | 5 (Level 5: growth control rate is above 85%) | 5 (Level 5: growth control rate is above 85%) |
| CSc1c(C(=O)Nc2nnc(C)o2)ccc(C(F)(F)F)c1[S@+]([O-])CC(C)F (some centres unmarked) [Compound 557] | 5 (Level 5: growth control rate is above 85%) | 5 (Level 5: growth control rate is above 85%) | 5 (Level 5: growth control rate is above 85%) | 5 (Level 5: growth control rate is above 85%) | 5 (Level 5: growth control rate is above 85%) |
| CSc1c(C(=O)Nc2nnc(C)o2)ccc(C(F)(F)F)c1[S@+]([O-])CC(F)F [Compound 558] | 5 (Level 5: growth control rate is above 85%) | 5 (Level 5: growth control rate is above 85%) | 5 (Level 5: growth control rate is above 85%) | 5 (Level 5: growth control rate is above 85%) | 5 (Level 5: growth control rate is above 85%) |
| CSc1c(C(=O)Nc2nnc(C)o2)ccc(C(F)(F)F)c1[S@+]([O-])CCC(F)(F)F [Compound 560] | 5 (Level 5: growth control rate is above 85%) | 5 (Level 5: growth control rate is above 85%) | 5 (Level 5: growth control rate is above 85%) | 5 (Level 5: growth control rate is above 85%) | 5 (Level 5: growth control rate is above 85%) |
| CSc1c(C(=O)Nc2nnc(C)o2)ccc(C(F)(F)F)c1[S@+]([O-])CCCC(F)(F)F [Compound 561] | 5 (Level 5: growth control rate is above 85%) | 5 (Level 5: growth control rate is above 85%) | 5 (Level 5: growth control rate is above 85%) | 5 (Level 5: growth control rate is above 85%) | 5 (Level 5: growth control rate is above 85%) |
| CSc1c(C(=O)Nc2nnc(C)o2)ccc(C(F)(F)F)c1[S@+]([O-])CCCl [Compound 562] | 5 (Level 5: growth control rate is above 85%) | 5 (Level 5: growth control rate is above 85%) | 5 (Level 5: growth control rate is above 85%) | 5 (Level 5: growth control rate is above 85%) | 5 (Level 5: growth control rate is above 85%) |
| CSc1c(C(=O)Nc2nnc(C)o2)ccc(C(F)(F)F)c1[S@+]([O-])CCCCl [Compound 563] | 5 (Level 5: growth control rate is above 85%) | 5 (Level 5: growth control rate is above 85%) | 5 (Level 5: growth control rate is above 85%) | 5 (Level 5: growth control rate is above 85%) | 5 (Level 5: growth control rate is above 85%) |
| CSc1c(C(=O)Nc2nnc(C)o2)ccc(C(F)(F)F)c1[S@+]([O-])CC#N [Compound 564] | 5 (Level 5: growth control rate is above 85%) | 5 (Level 5: growth control rate is above 85%) | 5 (Level 5: growth control rate is above 85%) | 5 (Level 5: growth control rate is above 85%) | 5 (Level 5: growth control rate is above 85%) |
| COCC[S@@+]([O-])c1c(C(F)(F)F)ccc(C(=O)Nc2nnc(C)o2)c1SC [Compound 565] | 5 (Level 5: growth control rate is above 85%) | 5 (Level 5: growth control rate is above 85%) | 5 (Level 5: growth control rate is above 85%) | 5 (Level 5: growth control rate is above 85%) | 5 (Level 5: growth control rate is above 85%) |
| CCCSc1c(C(=O)Nc2nnc(C)o2)ccc(C(F)(F)F)c1[S@+]([O-])CCC [Compound 570] | 5 (Level 5: growth control rate is above 85%) | 5 (Level 5: growth control rate is above 85%) | 5 (Level 5: growth control rate is above 85%) | 5 (Level 5: growth control rate is above 85%) | 5 (Level 5: growth control rate is above 85%) |
| CC[S@@+]([O-])c1c(C(F)(F)F)ccc(C(=O)Nc2nnco2)c1F [Compound 574] | 5 (Level 5: growth control rate is above 85%) | 5 (Level 5: growth control rate is above 85%) | 5 (Level 5: growth control rate is above 85%) | 5 (Level 5: growth control rate is above 85%) | 5 (Level 5: growth control rate is above 85%) |
| CCCC[S@@+]([O-])c1c(C(F)(F)F)ccc(C(=O)Nc2nnco2)c1F [Compound 575] | 5 (Level 5: growth control rate is above 85%) | 5 (Level 5: growth control rate is above 85%) | 5 (Level 5: growth control rate is above 85%) | 5 (Level 5: growth control rate is above 85%) | 5 (Level 5: growth control rate is above 85%) |
| CCC(C)[S@@+]([O-])c1c(C(F)(F)F)ccc(C(=O)Nc2nnco2)c1F (some centres unmarked) [Compound 576] | 5 (Level 5: growth control rate is above 85%) | 5 (Level 5: growth control rate is above 85%) | 5 (Level 5: growth control rate is above 85%) | 5 (Level 5: growth control rate is above 85%) | 5 (Level 5: growth control rate is above 85%) |
| CC(C)C[S@@+]([O-])c1c(C(F)(F)F)ccc(C(=O)Nc2nnco2)c1F [Compound 577] | 5 (Level 5: growth control rate is above 85%) | 5 (Level 5: growth control rate is above 85%) | 5 (Level 5: growth control rate is above 85%) | 5 (Level 5: growth control rate is above 85%) | 5 (Level 5: growth control rate is above 85%) |
